Consider three compounds from patent US6162798A, “Inhibitor of atherosclerotic intimal thickening” (priority 1991, dated 2000).

Assay [1] relates to aortic medial smooth muscle cells (M-SMC). Kind of assay: Inhibitory effects on migration of aortic medial smooth muscle cells (Boyden's chamber). The format is cell-based, Sprague Dawley male rat. The conditions noted are these: migration of rat M-SMC, drug concentration 10^-5 M, 4 hours. Here is the method: The inhibitory effects of the compounds of the present invention on migration of M-SMC were measured by the following methods. Arterial medial slices of the thoracic of aorta of a Sprague Dawley male rat were cultured by using a medium of Dulbecco's Modified Eagle (DME) containing 10% fetal bovine serum (FBS) at 37° C. in an atmosphere comprising 95% of air and 5% of carbon dioxide for 3 or 4 weeks. The aortic medial smooth muscle cells grown from the arterial medial slices were subcultured by 1:2 split of cell density for stable subculture. After the three or four times subculture, the cells in the state of confluency were subjected to trypsinized and then suspended in the above medium at a cell density of 500,000 cells per ml. To the cell suspension, a test compound dissolved in dimethylsulfoxide (DMSO) was added so that the final DMSO concentration would be 0.2%, and the cell suspension was pre-incubated at 37° C. for 30 minutes. As a control, DMSO was added alone at the same concentration. In the lower compartment of Boyden's chamber partitioned with a nitrocellulose membrane, 10 ng/ml of a platelet-derived growth factor (PDGF) or DME medium containing a 10% SMC-conditioned DME medium (SMC-CM) obtained from 48 hours conditioning was filled as a migration factor. In the upper compartment thereof, 1 ml of the cell suspension was loaded, and incubation was conducted at 37° C. for 4 hours in a culture condition. As the blank, the DME medium without migration factor was filled in the lower compartment. After 4 hour incubation, the cells adhered to the upper side of the nitrocellulose membrane were removed, and the cells migrated to the lower side of the membrane were fixed and stained by Diff Quik. The number of migrated cells was counted in the 10 fields by a light microscope at 400 x HPF.

In assay [2] the test system is aortic intimal smooth muscle cells (I-SMC). Kind of assay: Inhibitory effects on proliferation of aortic intimal smooth muscle cells (cell count). The conditions noted are these: Oryctolagus cuniculus, fold increase of cell number second to fifth day, read-out: Inhibition (%) Intima; for inhibition at 10 µM: drug concentration 10^-5 M; for inhibition at 1 µM: drug concentration 10^-6 M. It is filed as cell-based, atherosclerotic Japanese white rabbit. As to the method:
(§1) The inhibitory effects of the compounds of the present invention on the proliferation of I-SMC and M-SMC were measured by the following methods. […] After twice or three times subculture of cells, the cells in the state of confluency were trypsinized and suspended in the above medium so that the cell density would be 20,000 cells/ml. Then, the 10,000 cells were seeded and cultured on a 24 well multi-well plate. After incubation for 6 hours, the medium was replaced by 0.5 ml of a control medium or a medium containing a test compound. At the same time, the number of cells initially attached to the plate was counted and taken as the initial cell number (I). The test compound was added to the medium as described in Example 1. As the control, DMSO was added alone so that the final concentration would be 0.2%. The medium change was carried out every 2 days, and on the first, second, third, fifth and seventh days, the cells were trypsinized and suspended in Isoton and counted cell number by a Coulter counter. The obtained results were represented by an average number of cells of three wells in each case, and the inhibition (%) of the fold increase of the cell number from the second day to the fifth day was calculated in accordance with the following formula.

Assay [3] has as its system aortic medial smooth muscle cells (M-SMC). The assay is described as follows: Inhibitory effects on proliferation of aortic medial smooth muscle cells (cell count). The format is cell-based, healthy Japanese white rabbit. The conditions noted are these: Oryctolagus cuniculus, fold increase of cell number second to fifth day, read-out: Inhibition (%) Media; for inhibition at 10 µM: drug concentration 10^-5 M; for inhibition at 1 µM: drug concentration 10^-6 M. Here is the method: as §1

Assay [4] has as its system aortic intimal smooth muscle cells (I-SMC). Kind of assay: Inhibitory effect on 3H-thymidine uptake in aortic intimal smooth muscle cells. The format is cell-based, atherosclerotic Japanese white rabbit. The conditions noted are these: Oryctolagus cuniculus, 24 hours with compound, read-out: Inhibition (%) Intima; for inhibition at 10 µM: drug concentration 10^-5 M; for inhibition at 1 µM: drug concentration 10^-6 M. Here is the method:
(§2) The inhibitory effects of the compound of the present invention on ^3 H-thymidine uptake in I-SMC and M-SMC were measured by the following methods. M-SMC and I-SMC are obtained from aortic media of a healthy Japanese white rabbit and from aortic intima of an atherosclerotic Japanese white rabbit as mentioned in Example 2. After three or four times subculture, the cells in the state of confluency were trypsinized and suspended in a DME medium containing 10% of FBS and an antibiotic so that the cell density would be 40,000 cells/ml. The 10,000 cells were seeded to a 48 well multi-well plate. After 4 days culture, the medium was replaced by the control medium or the medium containing a test compound as used in Example 2, and culture was continued for 24 hours. Then, 1 μCi ([…]) of ^3 H-thymidine was added thereto, and culture was continued for 3 hours. The cells were washed three times with a phosphate buffered physiological saline (PBS) and treated with chilled 5% trichloroacetic acid (TCA). The insoluble-fraction was washed with chilled TCA and then dissolved in a 0.5N potassium hydroxide aqueous solution. The ^3 H radioactivity was measured by a liquid scintillation counter and the protein content was measured. […] The inhibition (%) was calculated in accordance with the following formula.

The test system of assay [5] is aortic medial smooth muscle cells (M-SMC). The assay is described as follows: Inhibitory effect on 3H-thymidine uptake in aortic medial smooth muscle cells. It is filed as cell-based, healthy Japanese white rabbit. The conditions noted are these: Oryctolagus cuniculus, 24 hours with compound, read-out: Inhibition (%) Media; for inhibition at 10 µM: drug concentration 10^-5 M; for inhibition at 1 µM: drug concentration 10^-6 M. As to the method: as §2

The test system of another assay is leukemic cells (HL-60). The assay is described as follows: Inhibitory effects against adhesion of leukemic cells (HL-60) induced by TPA. It is filed as cell-based. The conditions noted are these: Homo sapiens, HL-60, TPA-induced, 48 hours pretreatment; for inhibition at 10 µM: drug concentration 10^-5 M. Here is the method:
The inhibitory effects of the compounds in the present invention on cell adhesion of HL-60 were measured by the following methods. HL-60 cells were cultured in a RPMI 1640 medium containing 10% of FBS and an antibiotic at 37° C. in an atmosphere comprising 95% of air and 5% of carbon dioxide and then seeded to a 6 well multi-well plate in an amount of 2 ml per well at a cell density of 1,000,000/ml. A test compound dissolved in DMSO was added so that the final DMSO concentration would be 0.2%, and incubation was carried out for 48 hours for pretreatment. Then, 500,000 cells were seeded to a 24 well multi-well plate, and 0.02 mM of phorbol myristate acetate (TPA) dissolved in ethanol, was added in an amount of 1/250 (v/v) of the culture medium, and then culture was continued for 12 hours. After that, the cells were washed with PBS and the cells attached to the well plates were scraped off by trypsinization and suspended in Isoton, and the number of cells were counted by a Coulter counter. A control test was carried out by adding DMSO alone.

The test system of assay [6] is J774 macrophages (J774-M.phi.). The assay is described as follows: Inhibitory effects against adhesion of J774 macrophages. The conditions noted are these: Mus musculus, 48 hours pretreatment; for inhibition at 10 µM: drug concentration 10^-5 M; for inhibition at 1 µM: drug concentration 10^-6 M. It is filed as cell-based. Here is the method: The inhibitory effects of the compounds in the present invention on cell adhesion of J774-M.phi. were measured by the following methods. […] Then, culture was continued with a control medium containing 0.2% of DMSO or with a medium containing a test compound for 48 hours as pretreatment. Then, the cells were scraped by means of a rubber policeman and suspended in the above medium. 200,000 cells were seeded to a 24 well multi-well plate., and cultured for 12 hours. After that, the cells attached to the well plates were scraped by a rubber policeman, and the number of cells was counted by a Coulter counter. The obtained results are represented by an average value of the number of cells in three wells at the time of the pretreatment, in each case, and the inhibition (%) on the adhesion was calculated in accordance with the following formula.

Setting [7] is: migration factor 10 ng/ml PDGF, read-out: Inhibition (%) PDGF.
Setting [8] is: migration factor 10% SMC-conditioned medium, read-out: Inhibition (%) SMC-CM.

On to `Cc1nn(C)c2nc(C3CC3)c(/C=C/[C@@H]3C[C@@H](O)CC(=O)O3)c(-c3ccc(F)cc3)c12` (relative stereo) [Test compound 2, (E)-trans-6-(2'-[6"-cyclopropyl-1',3'-dimethyl-4'-(4'"-fluorophenyl)pyrazolo[3,4-b]pyridin-5"-yl]ethenyl)-4-hydroxy-3,4,5,6-tetrahydro-2H-pyran-2-one], for which the inhibition at 10 µM in assay [1] (setting [7]) came to 98.2%; in assay [1] (setting [8]), 32.8%; in assay [2] it was 98.2%; in assay [3], 86.5%; in assay [4], 91.5%; in assay [5], 88.4%. Besides, the inhibition at 1 µM in assay [2] was found to be 84.6%; in assay [3], 4.7%; in assay [4] it was 11.7%; in assay [5] it was 36.4%.

As for `CCc1c(C)sc2nc(C3CC3)c(/C=C/[C@@H]3C[C@@H](O)CC(=O)O3)c(-c3ccc(F)cc3)c12` (relative stereo) [Test compound 3, (E)-trans-6-(2'-[2'-cyclopropyl-5'-ethyl-3'-(4'"-fluorophenyl)-6'-methylthieno[2,3-b]pyridin-3'-yl]ethenyl)-4-hydroxy-3,4,5,6-tetrahydro-2H-pyran-2-on], the inhibition at 10 µM amounted to 100% in assay [1] (setting [7]); 41.7% in assay [1] (setting [8]); 100% in assay [2]; 100% in assay [3]; 94.1% in assay [4]; 92.2% in assay [5]. Further, the inhibition at 10 µM with leukemic cells (HL-60) stood at 96.4%; in assay [6], 92.4%. Moreover, the inhibition at 1 µM in assay [2] came out at 100%; in assay [3], 31.5%; in assay [4], 69.9%; in assay [5], 53.6%; with leukemic cells (HL-60) (drug concentration 10^-6 M) it was 92.2%; in assay [6], 92.2%. In addition, the inhibition at 0.1 µM in the assay with leukemic cells (HL-60) (drug concentration 10^-7 M) amounted to 4.8%.

`CC[C@H](C)C(=O)O[C@H]1C[C@H](O)C=C2C=C[C@H](C)[C@H](CC[C@@H](O)C[C@@H](O)CC(=O)O)[C@H]21` [Pravastatin, reference compound]: the inhibition at 10 µM in assay [1] (setting [7]) is 61.8%; in assay [1] (setting [8]), 26.2%; in assay [2], 1.3%; in assay [3], -11.7%; in assay [4], -7.2%; in assay [5], -34.3%. The inhibition at 10 µM with leukemic cells (HL-60) was -2.8%; in assay [6] it was 41.3%. Also, the inhibition at 1 µM was 1.3% in assay [2]; 8.7% in assay [3]; -7% in assay [4]; 8.7% in assay [5]; 40% in assay [6].

For orientation: inhibition means the drop in the measured response relative to a control, in per cent.
